# Measurements: ChEMBL document CHEMBL1153307, “Total synthesis and antihypertensive activity of (+/-)7,8-dihydroxy-3-methyl-isochromanone-4” (Bioorg Med Chem Lett, 2009)
# Calls of active or inactive are those of the source. The rule behind the calls is not given here.
# Tests used:
# Sus scrofa [1] = species: Sus scrofa; test: Inhibition of pig lung ACE at 1 umol/L assessed as enzyme restrain rate; parameters: scale not given: the % may be the effect or the level left
# Sus scrofa [2] = species: Sus scrofa; test: Inhibition of pig lung ACE at 100 nmol/L assessed as enzyme restrain rate; parameters: scale not given: the % may be the effect or the level left
# Sus scrofa [3] = species: Sus scrofa; test: Inhibition of pig lung ACE at 100 umol/L assessed as enzyme restrain rate; parameters: scale not given: the % may be the effect or the level left
# Sus scrofa [4] = species: Sus scrofa; test: Inhibition of pig lung ACE at 10 nmol/L assessed as enzyme restrain rate; parameters: scale not given: the % may be the effect or the level left
# Sus scrofa [5] = species: Sus scrofa; test: Inhibition of pig lung ACE at 10 pmol/L assessed as enzyme restrain rate; parameters: scale not given: the % may be the effect or the level left
# Sus scrofa [6] = species: Sus scrofa; test: Inhibition of pig lung ACE at 100 pmol/L assessed as enzyme restrain rate; parameters: scale not given: the % may be the effect or the level left
# Sus scrofa [7] = species: Sus scrofa; test: Inhibition of pig lung ACE at 10 umol/L assessed as enzyme restrain rate; parameters: scale not given: the % may be the effect or the level left
# Sus scrofa [8] = species: Sus scrofa; test: Inhibition of pig lung ACE at 1 pmol/L assessed as enzyme restrain rate; parameters: scale not given: the % may be the effect or the level left
# Rattus norvegicus [9] = test: Acute antihypertensive activity in two-kidney one-clip renal hypertensive rat assessed as reduction in systolic arterial pressure at 100 mg/kg/day; type: functional, organism-based
# Rattus norvegicus [10] = test: Acute antihypertensive activity in two-kidney one-clip renal hypertensive rat assessed as reduction in diastolic arterial pressure at 100 mg/kg/day; type: functional, organism-based
SMILES,Activity (Sus scrofa [1]),Activity (Sus scrofa [2]),Activity (Sus scrofa [3]),Activity (Sus scrofa [4]),Activity (Sus scrofa [5]),Activity (Sus scrofa [6]),Activity (Sus scrofa [7]),Activity (Sus scrofa [8]),Activity (Rattus norvegicus [9]),Activity (Rattus norvegicus [10])
C[C@H](CS)C(=O)N1CCC[C@H]1C(=O)O,95%,97%,94%,96%,47%,48%,94%,42%,–,–
CC1OCc2c(ccc(O)c2O)C1=O (racemic),61%,74%,77%,87%,41%,44%,61%,34%,Active,Active
